Results published in publication PMC8232238 (Cells, 2021).
Several values for one entry are separate records, joined by “and”; a condition that tells them apart may be missing. Equal values may be shown once. Read-outs that look alike come from different tables or passages of the source.

How the values were obtained:
[1] = UV/Vis absorption and fluorescence (photophysical properties) in DMSO; assay type: physicochemical; settings: for λem: excitation at 340 nm; for Φf (fluorescence quantum yield): relative to quinine sulfate, average of two samples
Procedure: S1.6 UV/Vis and Fluorescence Data
UV/Vis analysis was performed on a Cary Eclipse 300 UV/Vis spectrophotometer and fluorescence measurements performed on a Cary Eclipse Fluorescence spectrophotometer. All analysis was performed in 10 mm quartz cuvettes using AR grade DMSO. Relative quantum yields were obtained by comparison to quinine sulfate (фf = 0.58 in 0.1 M H2SO4) with absorbance of samples adjusted so that the absorbance at 340 nm was similar to the reference.
Emission spectra were obtained by excitation at 340 nm. Quantum yield was obtained by use of the following equation and are reported as the average of two samples with error <5%; […]
Where фref is the literature quantum yield of the reference, η is the refractive index of the solvent (H2O = 1.333, DMSO = 1.479) and Is is the integrated fluorescence intensity of the sample with Iref being the same of the reference.
Table S1 – Photophysical properties of selected compounds in DMSO […]
†Average of two samples, ±1%

HDAC3 = biological target: T1, HDAC3 (Homo sapiens, UniProt O15379); test: HDAC3 enzyme inhibition assay (single point and 10-dose IC50, Reaction Biology); assay type: biochemical; settings: for IC50: average of two independent measurements; for HDAC3 average enzyme isoform activity (percentage of full enzyme activity): single point, inhibitor 1.0 μM, average of two measurements, ±2%
T1 construct: purchased Reaction Biology corporation (contract assay)
Procedure: (§1) All IC50 measurements we performed by Reaction Biology corporation. Compounds were tested in
(§2) dilution starting at 1 uM. […]
(§3) (RHK(Ac)K(Ac)AMC). IC50 values were calculated using the GraphPad Prism 4 program based on a
(§4) sigmoidal dose-response equation. […]

HDAC6 = biological target: T2, HDAC6 (Homo sapiens, UniProt Q9UBN7); test: HDAC6 enzyme inhibition assay (single point and 10-dose IC50, Reaction Biology); assay type: biochemical; settings: for IC50: average of two independent measurements; for HDAC6 average enzyme isoform activity (percentage of full enzyme activity): single point, inhibitor 0.01 μM, average of two measurements, ±2%
T2 construct: purchased Reaction Biology corporation (contract assay)
T2 sequence (Q9UBN7 1-1215): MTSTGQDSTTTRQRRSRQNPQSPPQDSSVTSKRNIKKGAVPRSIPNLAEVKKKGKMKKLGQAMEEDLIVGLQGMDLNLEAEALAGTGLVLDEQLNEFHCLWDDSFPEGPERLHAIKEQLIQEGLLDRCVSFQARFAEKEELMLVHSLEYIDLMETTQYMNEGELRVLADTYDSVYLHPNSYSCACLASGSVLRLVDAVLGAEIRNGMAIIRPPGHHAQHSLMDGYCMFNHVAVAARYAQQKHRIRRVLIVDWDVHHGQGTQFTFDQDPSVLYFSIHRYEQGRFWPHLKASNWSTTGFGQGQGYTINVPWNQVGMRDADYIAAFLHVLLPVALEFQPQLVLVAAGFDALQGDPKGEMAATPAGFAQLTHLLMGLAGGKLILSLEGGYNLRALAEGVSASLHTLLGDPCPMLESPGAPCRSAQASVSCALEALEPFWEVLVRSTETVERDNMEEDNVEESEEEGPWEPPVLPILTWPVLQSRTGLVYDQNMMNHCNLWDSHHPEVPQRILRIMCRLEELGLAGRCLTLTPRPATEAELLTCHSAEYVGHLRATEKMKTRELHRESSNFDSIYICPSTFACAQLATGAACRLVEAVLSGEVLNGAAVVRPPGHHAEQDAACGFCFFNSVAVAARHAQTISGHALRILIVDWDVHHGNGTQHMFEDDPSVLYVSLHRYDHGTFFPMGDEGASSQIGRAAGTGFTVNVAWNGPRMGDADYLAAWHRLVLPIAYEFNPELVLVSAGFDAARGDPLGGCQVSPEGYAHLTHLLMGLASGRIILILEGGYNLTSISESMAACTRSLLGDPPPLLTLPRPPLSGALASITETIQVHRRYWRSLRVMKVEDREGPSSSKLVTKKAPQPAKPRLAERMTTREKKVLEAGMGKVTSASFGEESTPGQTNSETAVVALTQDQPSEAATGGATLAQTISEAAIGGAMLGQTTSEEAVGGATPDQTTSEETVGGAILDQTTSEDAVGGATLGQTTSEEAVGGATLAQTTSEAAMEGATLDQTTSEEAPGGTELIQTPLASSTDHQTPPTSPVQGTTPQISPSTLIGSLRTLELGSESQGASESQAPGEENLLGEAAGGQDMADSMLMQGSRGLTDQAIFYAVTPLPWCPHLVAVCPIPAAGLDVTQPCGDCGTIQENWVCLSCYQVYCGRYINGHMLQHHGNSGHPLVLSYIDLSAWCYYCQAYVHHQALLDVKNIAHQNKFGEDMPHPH
Procedure: (§5) Against HDAC6, inhibition was determined using 0.01 µM of the inhibitor.
as §1, §2, §3, §4

HDAC1 = biological target: T3, HDAC1 (Homo sapiens, UniProt Q13547); test: HDAC1 enzyme inhibition assay (single point and 10-dose IC50, Reaction Biology); assay type: biochemical; settings: for IC50: average of two independent measurements; for Selectivity factor (SF) = HDAC1 IC50/HDAC6 IC50: selectivity for HDAC6 over HDAC1; for HDAC1 average enzyme isoform activity (percentage of full enzyme activity): single point, inhibitor 1.0 μM, average of two measurements, ±2%
T3 construct: purchased Reaction Biology corporation (contract assay)
Procedure: as §1, §2, §3, §4

HDAC8 = biological target: T4, HDAC8 (Homo sapiens, UniProt Q9BY41); test: HDAC8 enzyme inhibition assay (single point and 10-dose IC50, Reaction Biology); assay type: biochemical; settings: for IC50: average of two independent measurements; for Selectivity factor (SF) HDAC8 against HDAC6: selectivity for HDAC6 over HDAC8
T4 construct: purchased Reaction Biology corporation (contract assay)
T4 sequence (Q9BY41 1-377): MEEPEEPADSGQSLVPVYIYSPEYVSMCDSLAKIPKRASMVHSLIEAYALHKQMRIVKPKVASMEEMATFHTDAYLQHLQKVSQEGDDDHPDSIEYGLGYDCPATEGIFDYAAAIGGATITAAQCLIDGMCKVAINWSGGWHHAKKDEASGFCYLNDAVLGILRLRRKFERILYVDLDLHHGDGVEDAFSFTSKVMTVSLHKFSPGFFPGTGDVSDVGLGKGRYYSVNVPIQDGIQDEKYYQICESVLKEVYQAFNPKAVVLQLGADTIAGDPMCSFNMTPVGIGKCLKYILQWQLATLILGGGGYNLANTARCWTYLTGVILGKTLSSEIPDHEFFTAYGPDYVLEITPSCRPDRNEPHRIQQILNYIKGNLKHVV
Procedure: as §5, §1, §2, §3, §4

HDAC11 = biological target: T5, HDAC11 (Homo sapiens, UniProt Q96DB2); test: HDAC11 enzyme inhibition assay (single point and 10-dose IC50, Reaction Biology); assay type: biochemical; settings: for IC50: average of two independent measurements; for Selectivity factor (SF) HDAC11 against HDAC6: selectivity for HDAC6 over HDAC11; for HDAC11 average enzyme isoform activity (percentage of full enzyme activity): single point, inhibitor 1.0 μM, average of two measurements, ±2%
T5 construct: purchased Reaction Biology corporation (contract assay)
T5 sequence (Q96DB2 1-347): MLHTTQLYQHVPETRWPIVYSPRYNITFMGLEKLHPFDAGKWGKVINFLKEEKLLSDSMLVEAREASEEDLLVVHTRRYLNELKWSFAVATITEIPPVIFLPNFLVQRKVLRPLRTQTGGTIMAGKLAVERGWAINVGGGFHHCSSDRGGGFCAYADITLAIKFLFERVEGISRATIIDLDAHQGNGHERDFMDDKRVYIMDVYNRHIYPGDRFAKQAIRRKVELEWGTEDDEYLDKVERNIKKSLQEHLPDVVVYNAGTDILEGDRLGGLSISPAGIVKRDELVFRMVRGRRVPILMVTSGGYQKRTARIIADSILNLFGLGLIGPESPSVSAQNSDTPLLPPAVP
Procedure: as §5
All IC50 measurements we performed by Reaction Biology corporation. Compounds were tested in […]
dilution starting at 1 uM.
Substrate for HDAC11: 50 uM Fluorogenic HDAC Class2a Substrate […]
(Trifluoroacetyl Lysine).
(RHK(Ac)K(Ac)AMC). IC50 values were calculated using the GraphPad Prism 4 program based on a sigmoidal dose-response equation. […]

[2] = single point, inhibitor 1.0 μM, average of two measurements, ±2%

T3 sequence (Q13547 whole entry, canonical isoform): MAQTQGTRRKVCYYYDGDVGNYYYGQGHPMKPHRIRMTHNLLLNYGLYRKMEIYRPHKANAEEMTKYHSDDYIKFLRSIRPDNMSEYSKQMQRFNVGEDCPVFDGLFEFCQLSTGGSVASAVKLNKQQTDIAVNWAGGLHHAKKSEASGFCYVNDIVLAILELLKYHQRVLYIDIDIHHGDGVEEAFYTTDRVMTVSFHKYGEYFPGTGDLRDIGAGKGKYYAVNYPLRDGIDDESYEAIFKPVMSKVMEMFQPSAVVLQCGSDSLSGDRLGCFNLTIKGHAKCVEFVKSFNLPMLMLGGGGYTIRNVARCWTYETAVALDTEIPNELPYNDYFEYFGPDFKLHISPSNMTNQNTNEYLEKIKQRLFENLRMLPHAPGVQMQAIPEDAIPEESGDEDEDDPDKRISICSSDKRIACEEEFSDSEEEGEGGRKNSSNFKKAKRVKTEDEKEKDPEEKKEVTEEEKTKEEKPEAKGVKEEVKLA
T1 sequence (O15379 whole entry, canonical isoform): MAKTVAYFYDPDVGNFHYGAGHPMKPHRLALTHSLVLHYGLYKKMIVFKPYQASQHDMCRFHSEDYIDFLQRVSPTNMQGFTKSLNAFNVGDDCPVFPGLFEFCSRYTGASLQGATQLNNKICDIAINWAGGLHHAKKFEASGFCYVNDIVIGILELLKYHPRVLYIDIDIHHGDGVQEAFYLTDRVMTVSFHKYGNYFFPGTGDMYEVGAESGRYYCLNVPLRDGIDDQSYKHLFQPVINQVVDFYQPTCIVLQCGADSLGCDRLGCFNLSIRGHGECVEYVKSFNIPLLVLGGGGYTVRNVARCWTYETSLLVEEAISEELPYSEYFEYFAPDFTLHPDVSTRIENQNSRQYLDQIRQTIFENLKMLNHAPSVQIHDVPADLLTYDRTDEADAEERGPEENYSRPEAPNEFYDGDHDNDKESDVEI
T1 sequence (Q9Y618 395-489 partner limits assumed): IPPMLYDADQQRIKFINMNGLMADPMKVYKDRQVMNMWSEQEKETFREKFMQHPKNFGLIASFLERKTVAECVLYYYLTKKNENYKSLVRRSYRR

Structure (SMILES)	λabs (absorption maximum) [1] [nm]	λabs (secondary absorption maximum) [1]	λem [1] [nm]	Φf (fluorescence quantum yield) [1]	IC50 (HDAC3) [nM]	Selectivity factor (SF) HDAC3 against HDAC6 (HDAC3; selectivity for HDAC6 over HDAC3)	HDAC3 average enzyme isoform activity (percentage of full enzyme activity) (HDAC3) [%]	IC50 (HDAC6) [nM]	HDAC6 average enzyme isoform activity (percentage of full enzyme activity) (HDAC6) [%]	IC50 (HDAC1) [nM]	Selectivity factor (SF) = HDAC1 IC50/HDAC6 IC50 (HDAC1)	HDAC1 average enzyme isoform activity (percentage of full enzyme activity) (HDAC1) [%]	IC50 (HDAC8) [nM]	Selectivity factor (SF) HDAC8 against HDAC6 (HDAC8)	HDAC8 average enzyme isoform activity (percentage of full enzyme activity) (HDAC8; [2]) [%]	IC50 (HDAC11) [nM]	Selectivity factor (SF) HDAC11 against HDAC6 (HDAC11)	HDAC11 average enzyme isoform activity (percentage of full enzyme activity) (HDAC11) [%]	HDAC8 average enzyme isoform activity (percentage of full enzyme activity) (HDAC8) [%]
COCCN1C(=O)c2cccc3cc(NC(=O)c4ccccc4)cc(c23)C1=O [Compound 6]	344	385 nm	435	0.02	–	–	–	–	–	–	–	–	–	–	–	–	–	–	–
CCC(=O)Nc1cc2c3c(cccc3c1)C(=O)N(CCOC)C2=O [Compound 7]	341	383 nm	439	0.04	–	–	–	–	–	–	–	–	–	–	–	–	–	–	–
COCCN1C(=O)c2cccc3cc(N4CCCC4=O)cc(c23)C1=O [Compound 8]	343	383 nm	441	0.02	–	–	–	–	–	–	–	–	–	–	–	–	–	–	–
COCCN1C(=O)c2cccc3cc(NC(=O)OC(C)(C)C)cc(c23)C1=O [Compound 9]	345	367 nm	442	0.06	–	–	–	–	–	–	–	–	–	–	–	–	–	–	–
COc1ccc(C(=O)Nc2cc3c4c(cccc4c2)C(=O)N(CCCCCC(=O)NO)C3=O)cc1 [KNH020]	343	386 nm and 374 nm	437	0.05	27 ± 3	47	17.2	0.58 ± 0.002	19.7	87 ± 7	150	38.7	4330 ± 390	7466	93.4	240 ± 11	413	58.7	–
CCC(=O)Nc1cc2c3c(cccc3c1)C(=O)N(CCCCCC(=O)NO)C2=O [KNH021]	341	383 nm	435	0.04	32 ± 1	–	20.1	0.97 ± 0.05	20.3	37 ± 2	38	29.8	950 ± 50	981	50.4	2160 ± 140	2234	90.7	–
O=C(CCCCCN1C(=O)c2cccc3cccc(c23)C1=O)NO [scriptaid, reference compound]	–	–	–	–	–	–	–	–	–	–	–	–	–	–	–	–	–	–	60.3
